Measurements: patent US4294849A, “Prostaglandin analogues” (Warner-Lambert Company, priority 1979, dated 1981)

What was measured:
dogs = test: hypotensive activity, intravenous administration to allobarbital-anaesthetised dogs; type: in vivo, dog; details: for Hypotensive Activity Dog (i.v.), relative to PGE1 taken as 1: relative to PGE1 = 1; for useful activities (hypotensive, blood platelet aggregation inhibitory, vasodilator): in words, summary of the Table; for hypotensive activity, times as potent as PGE1: intravenous, allobarbital-anaesthetised dogs, vs PGE1
[1] = test system: blood platelet aggregation; test: inhibitory activity on adenosine diphosphate-induced blood platelet aggregation in platelet-rich plasma of rats; type: cell-based, rat; details: for Inhibitory Activity on Blood Platelet Aggregation Rat, relative to PGE1 taken as 1: relative to PGE1 = 1; for inhibitory activity on adenosine diphosphate-induced blood platelet aggregation, times as potent as PGE1: rat platelet-rich plasma, vs PGE1
[2] = test system: blood platelet aggregation; test: inhibitory activity on adenosine diphosphate-induced blood platelet aggregation in platelet-rich plasma of humans; type: cell-based, human; details: for Inhibitory Activity on Blood Platelet Aggregation Human, relative to PGE1 taken as 1: relative to PGE1 = 1; for inhibitory activity on adenosine diphosphate-induced blood platelet aggregation, times as potent as PGE1: human platelet-rich plasma, vs PGE1
isolated rabbit hearts = test: coronary vasodilator activity on isolated rabbit hearts; details: for Vasodilator Activity Rabbit, relative to PGE1 taken as 1: relative to PGE1 = 1; for coronary vasodilator activity, times as potent as PGE1: isolated rabbit hearts, vs PGE1
mice = details: mouse, in vivo; for Diarrhoea-inducing Activity Mice (p.o.), relative to PGE1 taken as 1 / diarrhoea-inducing activity compared with PGE1: po
[3] = test system: spontaneously hypertensive rats; test: hypotensive activity, oral administration to conscious spontaneously hypertensive rats; type: in vivo, rat; details: for Hypotensive Activity Rat (p.o.), relative to PGE1 taken as 1: relative to PGE1 = 1; for hypotensive activity, times as potent as PGE1: oral, conscious spontaneously hypertensive rats, vs PGE1
Source text: In the Table, all the activities are indicated relative to the activity of PGE1, taken as 1.

[4] = acute toxicity tests, intravenous or oral administration to mice; details: mouse, in vivo
Protocol: Acute toxicity tests on the compounds of the present invention were conducted by administering them intravenously or orally to mice.

| SMILES | Hypotensive Activity Dog (i.v.), relative to PGE1 taken as 1 (dogs) | Inhibitory Activity on Blood Platelet Aggregation Rat, relative to PGE1 taken as 1 [1] | Inhibitory Activity on Blood Platelet Aggregation Human, relative to PGE1 taken as 1 [2] | Vasodilator Activity Rabbit, relative to PGE1 taken as 1 (isolated rabbit hearts) | Diarrhoea-inducing Activity Mice (p.o.), relative to PGE1 taken as 1 (mice) | Hypotensive Activity Rat (p.o.), relative to PGE1 taken as 1 [3] | useful activities (hypotensive, blood platelet aggregation inhibitory, vasodilator) (dogs) | hypotensive activity, times as potent as PGE1 (dogs) [times] | hypotensive activity, times as potent as PGE1 [3] [times] | inhibitory activity on adenosine diphosphate-induced blood platelet aggregation, times as potent as PGE1 [1] [times] | inhibitory activity on adenosine diphosphate-induced blood platelet aggregation, times as potent as PGE1 [2] [times] | coronary vasodilator activity, times as potent as PGE1 (isolated rabbit hearts) [times] | LD50 ([4]; intravenous administration) [mg/kg] | LD50 ([4]; oral administration) [mg/kg] | diarrhoea-inducing (side-effect) activity compared with the known compounds (mice) | diarrhoea-inducing activity compared with PGE1 (mice) |
| --- | --- | --- | --- | --- | --- | --- | --- | --- | --- | --- | --- | --- | --- | --- | --- | --- |
| CCCC[C@@H](C)[C@H](O)/C=C/[C@H]1[C@H](O)CC(=O)[C@@H]1CCCC/C=C/C(=O)O [A, 9-oxo-11α,15α-dihydroxy-16R-methylprosta-trans-2,trans-13-dienoic acid, reference compound] | 9.5 | 2.84 | 1.6 | 2-3 | 270.6 |  |  |  |  |  |  |  |  |  |  |  |
| CCCC(CC)C[C@H](O)/C=C/[C@H]1[C@H](O)CC(=O)[C@@H]1CCCC/C=C/C(=O)O (stereo partly drawn) [B, 9-oxo-11α,15α-dihydroxy-17-ethylprosta-trans-2,trans-13-dienoic acid, reference compound] | 1.5 | 14.5 | 22.1 | 1.0 | < 1 | 10 |  |  |  |  |  |  |  |  |  |  |
| CC(c1ccccc1)[C@H](O)/C=C/[C@H]1[C@H](O)CC(=O)[C@@H]1CCCC/C=C/C(=O)O (stereo partly drawn) [C, 9-oxo-11α,15α-dihydroxy-16-phenyl-18,19,20-trinorprosta-trans-2,trans-13-dienoic acid, reference compound] | 39.0 |  |  | 0.3 | 11.9 |  |  |  |  |  |  |  |  |  |  |  |
| CCCCCC(CC)C[C@H](O)/C=C/[C@H]1[C@H](O)CC(=O)[C@@H]1CCCC/C=C/C(=O)O (stereo partly drawn) [D, 9-oxo-11α,15α-dihydroxy-17,20-diethylprosta-trans-2,trans-13-dienoic acid, reference compound] | 1.45 | 1.4 | 2.4 | < 0.1 | 3.2 | 30-100 |  |  |  |  |  |  |  |  |  |  |
| CCCCCC(CC)C[C@H](O)/C=C/[C@H]1[C@H](O)CC(=O)[C@@H]1CCCC/C=C/C(=O)OC (stereo partly drawn) [E, methyl 9-oxo-11α,15α-dihydroxy-17,20-diethylprosta-trans-2,trans-13-dienoate, reference compound] | 0.88 | 2.2 | 0.14 | 0.1 | 1.7 | 10 |  |  |  |  |  |  |  |  |  |  |
| CCCC[C@H](C)C[C@H](O)/C=C/[C@H]1[C@H](O)CC(=O)[C@@H]1CCCC/C=C/C(=O)O [F, 9-oxo-11α,15α-dihydroxy-17S,20-dimethylprosta-trans-2,trans-13-dienoic acid] | 10.0 | 81.6 | 38.5 | 19.0 | < 1 | 100 | extremely strong | 10 | 100 | 81.6 | 38.5 | 19.0 | ~12 | ~50 | weaker | lower diarrhoea-inducing activity than PGE1 |
| CCCC[C@@H](C)C[C@H](O)/C=C/[C@H]1[C@H](O)CC(=O)[C@@H]1CCCC/C=C/C(=O)O [G, 9-oxo-11α,15α-dihydroxy-17R,20-dimethylprosta-trans-2,trans-13-dienoic acid] | 3.5 | 70.5 | 48.1 | 14.0 | < 1 |  | extremely strong | 3.5 |  | 70.5 | 48.1 | 14.0 |  |  | weaker | lower diarrhoea-inducing activity than PGE1 |
| CCCC[C@H](C)C[C@H](O)/C=C/[C@H]1[C@H](O)CC(=O)[C@@H]1CCCC/C=C/C(=O)OC [H, methyl 9-oxo-11α,15α-dihydroxy-17S,20-dimethylprosta-trans-2,trans-13-dienoate] | 5.0 |  |  |  | < 1 | 100 | extremely strong | 5 | 100 |  |  |  |  |  | weaker | lower diarrhoea-inducing activity than PGE1 |
